Source: patent EP2177496A1, “New analogs of polysphorin and uses thereof for treating or preventing malaria” (Assistance Publique - Hôpitaux de Paris, priority 2008, dated 2010)
One block for each compound: values may come before it.

How the values were obtained:
P. falciparum [1] = experiment: In vitro activity against erythrocytic stage of P. falciparum ([3H]-hypoxanthine incorporation); assay type: cell-based, chloroquine-sensitive (3D7w) clone of P. falciparum; conditions: read-out: IC50 (µM) Erythrocytic stage P. falciparum
Description: After 48 hours, [^3H]-hypoxanthine (Amersham) was added to each well and then plates were incubated for 24 hours. Parasites were harvested, and incorporation of radioactivity was determined by liquid scintillation counting (Beckman LS1701, les Ulis, France). The counts-per-minute (cpm) was adjusted relative to controls to obtain percentages of inhibition. […] This estimation was obtained with IC50 estimator software. For the assay, the parasites were synchronized by D-sorbitol treatment.

in vitro = conditions: human, TC50 (µM) Hepatic stage (rodent) P. yoelii, 50% toxic concentration, MTT assay
Description: (§1) A preliminary screening was performed consisting in the infection of human CD81 transfected hepatocarcinome cell line HepG2 (HepG2/CD81) with P. yoelii. IC50 (inhibiting concentration 50), TC50 (toxic concentration 50) and TI (therapeutic index, ratio TC50/IC50) were estimated for each drug tested. Selected molecules (small IC50, high TC50 and high TI) were analyzed in human hepatocytes. Briefly, HepG2 cells were plated in 96-well plates for 24 h prior to inoculation with 1x10^4 of P. yoelii sporozoites. Sporozoites-inoculated culture plates were centrifuged for 5 min at 1,500 rpm at 4°C in order to enhance the infection rate as described by Gruner (Gruner et al., 2005). After 3h at 37°C, the cultures were washed and further incubated in fresh medium for 48 h (P. yoelii) before quantification of infected cells in triplicate wells.
(§2) Toxicity was determined by using the colorimetric 3-(4,5-dimethylthiazol-2-yl)-2,5-diphenyltetrazolium bromide (MTT) assay (Mosman., 1983). Briefly, HepG2 cells cultures were prepared in 96-well plates as described above. Drugs were tested in triplicate wells at eight concentrations ranging from 6.4 × 10^-3 µM to 200 µM. One hundred microliters of 0.5 mg/ml MTT (5 mg/ml MTT in water diluted 10x in William's medium without fetal bovine serum) was added to each well, and the plates were incubated for 4 h (37°C, 5% CO2). The medium was discarded, and the cells were resuspended in ethanol and dimethyl sulfoxide (50/50, vol/vol). The plates were read in an enzyme-linked immunosorbent assay plate reader (550-nm absorbance wavelength and 620-nm reference wavelength). The results were expressed as the percent change in viability compared to drug-free control cultures. […] Each drug and concentration was tested at least in triplicate. The selectivity index (SI) was defined as the ratio of the TC50 to the IC50.

[2] = MTT toxicity assay reported with the erythrocytic stage (TC50), cells not named; assay type: cell-based; conditions: 50% toxic concentration, read-out: TC50 (µM) Erythrocytic stage P. falciparum
From the text: The selectivity index (SI) was defined as the ratio of the TC50 to the IC50.

P. yoelii = experiment: In vitro activity against hepatic stage of P. yoelii (sporozoite-infected HepG2/CD81 cells or rodent hepatocytes, liver-schizont count); assay type: cell-based, P. yoelii (265 BY strain); conditions: rodent parasite P. yoelii, cultures arrested at 48 h
Description: (§3) Activity against pre-erythrocytic stages was tested by in vitro assays with the human parasite P. falciparum (NF54 strain) and the rodent parasite P. yoelii (265 BY strain). The rodent parasite P. yoelii is produced in the insectarium of the INSERM Unit U511 and human parasite P. falciparum was obtained from collaboration with R. Sauerwein.
(§4) Sporozoites were obtained from infected salivary glands of Anopheles stephensi mosquitoes fed on continuous culture of P. falciparum (coll R. Sauerwein, Netherlands), or on P. yoelii parasitized mice (insectarium of the INSERM Unit U511). After aseptic dissection, salivary glands were homogenized in a glass grinder and diluted in culture medium or sterile phosphate-buffered saline (PBS).
(§5) Primary cultures of rodent or human hepatocytes were prepared from liver segments taken from mouse or from adult patients undergoing partial hepatectomy. Hepatocytes were isolated using the two-step enzymatic perfusion technique (Guguen-Guillouzo et al., 1982) and were further purified on a discontinuous Percoll gradient. Then, hepatocytes were seeded in eight-chamber Lab-Tek permanox slides at a density of 1,4x10^5 cells per cm^2, and maintained under culture conditions as described in Mahmoudi et al., 2003. After complete adherence to culture plates, rodent and human hepatocytes were infected with P. yoelii or P. falciparum sporozoites, respectively, aseptically dissected from mosquitoes' salivary glands, as described above. Hepatocytes were inoculated with 6x10^4 sporozoites per Lab-Tek well. Compounds to be tested were added at the time of infection and/or after penetration of the sporozoites and at different concentrations (three wells per dilution). Every day, medium was replaced by fresh medium containing or not different concentrations of the molecules to be tested. Cultures were arrested at 48 hours (P. yoelii) or 6 days (P. falciparum) and cells were fixed with methanol. Liver-schizonts were quantified by microscopic examination after fluorescent labeling using a primary mouse antibody directed against Plasmodium heat shock protein-70 (Renia et al., 1990) produced in INSERM unit 511 and a secondary goat anti-mouse antibody conjugated with fluorescein isothiocyanate (Sigma Aldrich).

HepG2 cells = experiment: in vitro; conditions: read-out: TC50 (µM) Hepatic stage (rodent) P. yoelii; 50% toxic concentration, MTT assay
Description: as §1, §2

[3] = MTT toxicity assay on human hepatocytes (TC50)
Description: Cytotoxic effect of the compounds was evaluated on human hepatocytes, obtained as described above. The colorimetric MTT assay was used (Mosman., 1983). Briefly, hepatocyte cultures were prepared in 96-well plates as described above. Drugs were tested in triplicate wells at eight concentrations ranging from 6.4 x 10^-3 µM to 200 µM. One hundred microliters of 0.5 mg/ml MTT (5 mg/ml MTT in water diluted 10x in William's medium without fetal bovine serum) was added to each well, and the plates were incubated for 4 h (37°C, 5% CO2). The medium was discarded, and the cells were resuspended in ethanol and dimethyl sulfoxide (50/50, vol/vol). The plates were read in an enzyme-linked immunosorbent assay plate reader (550-nm absorbance wavelength and 620-nm reference wavelength). The results were expressed as the percent change in viability compared to drug-free control cultures. […] Each drug and concentration was tested at least in triplicate. The selectivity index (SI) was defined as the ratio of the TC50 to the IC50.

P. falciparum [4] = experiment: In vitro activity against hepatic stage of P. falciparum in primary human hepatocytes (liver-schizont count); assay type: cell-based, P. falciparum (NF54 strain); conditions: cultures arrested at 6 days
Description: as §3, §4
as §5, with “Every day, medium was replaced by fresh medium containing or not different concentrations of the molecules to be tested. Cultures were arrested at 48 hours (P. yoelii) or 6 days (P. falciparum) and cells were fixed with methanol.” left out

[5] = Plasmodium yoelii, Hepatocyte, 48 h
[6] = Plasmodium falciparum, Erythrocyte, 72 h, ring stage parasitized erythrocytes, 3D7w clone, 48 h + 24 h with [3H]-hypoxanthine
[7] = ring stage parasitized erythrocytes, 3D7w clone, 48 h + 24 h with [3H]-hypoxanthine

IC50 (P. falciparum [1]; Plasmodium falciparum, Erythrocyte, 72 h): 0.04 µM
SMILES: CCN(CC)CCCC(C)Nc1ccnc2cc(Cl)ccc12 (centres unmarked) [Chloroquine, reference compound]

SMILES: COc1cc(NC(C)CCCN)c2ncccc2c1 (centres unmarked) [Primaquine, reference compound]
CC50 (in vitro): 12.6 µM

SMILES: COc1cccc(OC)c1OC(C)C(O)c1ccc2c(c1)OC(F)(F)O2 (centres unmarked) [drawing 70]
CC50 [2]: 55 µM
IC50 (P. yoelii; [5]): 20.1 µM
CC50 (in vitro): 54.9 µM
IC50 (P. falciparum [1]; [6]): > 40 µM

SMILES: COc1cccc(OC)c1OC(C)C(O)c1ccc2c(c1)OC(F)(F)O2 (centres unmarked) [drawing 71]
CC50 [2]: 53 µM
IC50 (P. yoelii): 20.2 µM
IC50 (P. falciparum [1]; [7]): > 40 µM

IC50 (P. falciparum [1]; [6]): 13.6 µM
SMILES: COc1cc(C)cc(OC)c1OC(C)C(O)c1ccc2c(c1)OC(F)(F)O2 (centres unmarked) [drawing 72]
CC50 [2]: 57 µM
IC50 (P. yoelii): 19 µM
CC50 (in vitro): 56.8 µM

IC50 (P. falciparum [1]; [7]): 13.5 µM
SMILES: COc1cc(C)cc(OC)c1OC(C)C(O)c1ccc2c(c1)OC(F)(F)O2 (centres unmarked) [drawing 73]
CC50 [2]: 53.7 µM
IC50 (P. yoelii): 5.62 µM
CC50 (HepG2 cells): 53.7 µM

SMILES: COc1cc(C(O)C(C)Oc2c(OC)cccc2OC)cc(OC)c1OC (centres unmarked) [drawing 74]
CC50 [2]: 58 µM
IC50 (P. yoelii): 28.6 µM
CC50 (HepG2 cells): 57.9 µM
IC50 (P. falciparum [1]; [6]): > 40 µM

SMILES: COc1cc(C(O)C(C)Oc2c(OC)cccc2OC)cc(OC)c1OC (centres unmarked) [drawing 75]
IC50 (P. yoelii): 2.52 µM
CC50 (HepG2 cells): 0.126 µM

SMILES: COc1cc(C(O)C(C)Oc2c(OC)cc(C)cc2OC)cc(OC)c1OC (centres unmarked) [drawing 76]
CC50 [2]: 47 µM
IC50 (P. yoelii): 50.1 µM
CC50 (in vitro): 47 µM
IC50 (P. falciparum [1]; [6]): > 40 µM

SMILES: COc1cc(C(O)C(C)Oc2c(OC)cc(C)cc2OC)cc(OC)c1OC (centres unmarked) [drawing 77]
CC50 [2]: 49.5 µM
IC50 (P. yoelii): 0.0045 ± 0.005 µM
CC50 [3]: 125 µM
IC50 (P. falciparum [4]; Plasmodium falciparum, Hepatocyte, 144 h): 0.38 µM
CC50 (HepG2 cells): 49.5 µM
IC50 (P. falciparum [1]; [7]): > 40 µM

SMILES: COc1cc(C(O)C(C)Oc2c(OC)cc(-c3ccccc3)cc2OC)cc(OC)c1OC (centres unmarked) [drawing 78]
CC50 [2]: 50 µM
IC50 (P. yoelii; [5]): 3.54 ± 4.9 µM
CC50 [3]: 50 µM
IC50 (P. falciparum [4]): 0.02 µM
CC50 (in vitro): > 50 µM
IC50 (P. falciparum [1]; [6]): 11.5 µM

SMILES: COc1cc(C(O)C(C)Oc2c(OC)cc(-c3ccccc3)cc2OC)cc(OC)c1OC (centres unmarked) [drawing 79]
CC50 [2]: 50 µM
IC50 (P. yoelii): 3.61 ± 4 µM
IC50 (P. falciparum [4]): 0.007 µM
CC50 (HepG2 cells): > 50 µM
IC50 (P. falciparum [1]; [7]): 20 µM
